Experimental data published in patent US20240201191A1, “CITRULLINATED PROTEINS AS BIOMARKERS AND THERAPY TARGETS FOR CANCER” (BOARD OF REGENTS, THE UNIVERSITY OF TEXAS SYSTEM, priority 2022, published 2024).
Square brackets hold non-standard residues; d marks the D form. Ends that are not written are not given here. Cit = NC(=O)NCCC[C@H](N)C(=O)O

How the values were obtained:
[1] = test system: B cell-mediated IgG secretion; test: ELISpot IgG assay; format: cell-based; settings: compared to media
Description: (§1) Using ELISpot assays, we tested the unmodified and citrullinated forms of three pairs of synthesized ENO1 peptides predicted as having high MHC-II binding affinity and assessed B cell-mediated IgG and T cell-mediated IFNγ secretion (Table 9).

[2] = test system: T cell-mediated IFNγ secretion; test: ELISpot IFNγ assay; format: cell-based; settings: compared to media
Description: as §1

| Substance | B cell-mediated IgG response (ELISpot) [1] | T cell-mediated IFNγ secretion (ELISpot) [2] | T cell-mediated IFNγ secretion (ELISpot) ([2]; listed as citrullinated peptide 1) |
| --- | --- | --- | --- |
| AMQEFMILPVGASSFR*EAMR*GA (AMQEFMILPVGASSF[Cit]EAM[Cit]GA) [citrullinated peptide-2, citrullinated synthesized ENO1 peptide, R16(Cit.), R20(Cit.)] | elicited a potent IgG response |  |  |
| R*AAVPSGASTGIYEALELR*DNDKTR* (RAAVPSGASTGIYEALELRDNDKTR; citrullinated arginines; MOD_RES (1)..(1) Citrullinated Arginine; MOD_RES (19)..(19) Citrullinated Arginine; MOD_RES (25)..(25) Citrullinated Arginine) [citrullinated peptide-1, citrullinated synthesized ENO1 peptide, position 32-56] | elicited a potent IgG response | modest increase in IFNg secretion | higher amount of INFγ response |
